For test [1], the system named is xenograft GvHD mouse model (NCG-hIL-15 mice transplanted with human PBMCs). Briefly: Xenograft acute GvHD mouse model, single vs combination therapy, survival. As to conditions: Day 18; treatment D5-D18; ruxolitinib 60 mpk PO twice-daily; Antibody 1 75 mpk IP once-daily; n=10. Type of test: in vivo.
Description: A xenograft GvHD mouse model was utilized to study human T and NK cell-mediated aGvHD and the therapeutic effects of anti-CD122 antibody treatment in single or combination therapy approaches. Female NCG-hIL-15 mice were irradiated at a dosage of 100 cGy on Day 1 of the protocol and human peripheral blood mononuclear cells (PBMCs) were transplanted via injection at a dosage of 1×10^7 cells/200 μL/mice via IV administration into the irradiated mice according to the same xenograft GvHD mouse model design as in Example 4.
Treatment according to 3 different grouping of animals was begun on Day 5 following transplant, as shown in the study design of FIG. 4. Groups of 10 mice were used for each test category. A single treatment group, Group #1, (n=10) received ruxolitinib (at a dosage of 60 mpk) twice-daily by oral administration (PO) beginning on Day 5 and ending on Day 18. Days of treatment were D5, D6, D7, D8, D9, D10, D11, D12, D13, D14, D15, D16, D17, and D18. A combination therapy group. Group #2. (n=10) received ruxolitinib (at a dosage of 60 mpk) twice-daily by oral administration beginning on Day 5 and ending on Day 18. […]
Day 18 was the end of study day for all treatment groups. Animals from all treatment groups were assessed daily beginning on Day 1 and ending on Day 18 for survival following transplant. […]
In test [2] the test system is allogeneic model of chronic GvHD (BALB/c mice). Briefly: Allogeneic chronic GvHD mouse model (B10.D2 donor into BALB/c host), GvHD score. Type of test: in vivo. As to conditions: Antibody 3 100 mpk IP Q.O.D., Ruxolitinib 60 mpk PO b.i.d. The source says: An allogeneic model of chronic GvHD according to the animal model design of Ramos et al (Ramos T L et al. Delayed administration of ixazomib modifies the immune response and prevents chronic graft-versus-host disease. Bone Marrow Transplant. 2021 December;56(12):3049-3058) was investigated. In this model as shown in the study design of FIG. 6. B10.D2 mice serve as donor for bone marrow and splenocytes to be transplanted into irradiated BALB/c host mice. […] In this model of cGvHD, there is a low mortality rate extending past 150 days post-transplant and cGvHD symptoms can typically appear starting at approximately 30 days post-transplant. Study design includes treatment start at Day 30 post-transplant and end of study is marked at Day 60 post-transplant. […] Two test treatment groups included Group 2) Antibody 3 anti-CD122 antibody therapy (100 mpk delivered IP every other day (Q.O.D.), and Group 3) ruxolitinib monotherapy (60 mpk PO b.i.d). One negative control group (Group 1) including vehicle (IP Q.O.D.)+vehicle (PO b.i.d.) was also tested. Phenotypic cGvHD score and survival were assessed starting at Day 30 and ending at Day 60 post-transplant.
• BALB/c mice were randomized into treatment groups based on Day 1 bodyweight. • Female BALB/c mice were irradiated (5 Gy) and intravenously injected with B10.D2 donor cells on Day 1. • Cell injection volume was about 200 μL of Bone Marrow cells and splenocytes mixture as described below in treatments. Total cell volume injection=200 μL in PBS. • GvHD Scoring and body weight measurement assessed on Day 30, 33, 35, 37, 39, 41, 43, 45, 48, 51, 53, 56, 58, and 60. • Individual scores according to the grading system below of Grade 0, 1, or 2 were measured and documented on each assessed day for each criterion of body weight loss, activity, posture, fur texture, and skin integrity for each subject in each test group. Each criterion was then summed per subject to yield a total GvHD score by subject per assessed day (e.g., add score for bodyweight loss, activity, posture, fur texture, and skin integrity to yield total GvHD score). • Total GvHD scores per animal per day were then averaged per group to yield average GvHD score per test group and the standard error of the mean (SEM) for each group was determined.

For `N#CC[C@H](C1CCCC1)n1cc(-c2ncnc3[nH]ccc23)cn1` [ruxolitinib], the “survival rate at the end of the study” value in test [1] came to 30%. Further, the “Average total GvHD score (mean)” value in test [2] (D 30 post-transplant) is 0.6; in test [2] (D 33 post-transplant) it was 0.6; in test [2] (D 35 post-transplant), 0.7; in test [2] (D 39 post-transplant), 1.2; in test [2] (D 43 post-transplant), 1.1; in test [2] (D 45 post-transplant), 1.2. The “Average total GvHD score (mean)” value in test [2] (D 48 post-transplant) is listed as 1.2; in test [2] (D 51 post-transplant), 1.2; in test [2] (D 56 post-transplant), 1.4; in test [2] (D 60 post-transplant), 1.7.

Source of the values: patent US20250313642A1, “METHODS OF TREATING ACUTE AND CHRONIC GRAFT VERSUS HOST DISEASE” (Forte Subsidiary, Inc., priority 2022, published 2025).
